Data published in US20260258073A1, “CRYSTALLINE FORMS OF A NEUROACTIVE STEROID” (SAGE THERAPEUTICS, INC., priority 2022, published 2026).

Assays:
[1] = Dynamic vapor sorption (DVS) isotherm of the solid form; assay type: physicochemical
Procedure: DVS was measured using a SMS (Surface Measurement Systems) DVS Intrinsic. The relative humidity at 25° C. was calibrated against deliquescence point of LiCl, Mg(NO3)2 and KCl.
To investigate the solid form stability as a function of humidity, a DVS isotherm plot of Form A was collected at 25° C.

[2] = Solid form stability on heating and cooling, checked by XRPD; assay type: physicochemical; conditions: cooling down to room temperature under nitrogen protection, re-exposure to ambient conditions
Procedure: A PANalytical Empyrean X-ray powder diffractometer was used to collect X-ray diffraction patters as described herein. The diffraction peak position was calibrated using a PANalytical Si reference standard disc.
Form D was generated via vacuum dry of Form X. The XRPD pattern for Form D is provided in FIG. 3A and characteristic peaks are summarized in Table 20. […] (peak temperature) before a possible melting peak at 204.0° C. (peak temperature).
Form E was generated via liquid diffusion in BuOH/n-heptane of Form A at RT. […] (peak temperature) before possible melting peak at 203.1° C. (peak temperature). […] As evidenced by the presence of n-butanol methylene proton at ~3.7 ppm (1.5:1, molar ratio of n-butanol/API) detected by ^1H NMR in FIG. 4D, Form E was deemed to be an n-butanol solvate.

C[C@H](CC[C@](C)(O)C(F)(F)F)[C@H]1CC[C@H]2[C@@H]3CC=C4C[C@@](C)(O)CC[C@]4(C)[C@H]3CC[C@]12C [Form A]
water uptake (DVS) ([1]; 25° C./80% RH): 0.05% | form change after DVS test (XRPD overlay before and after) ([1]; DVS isotherm collected at 25° C.): no form change | hygroscopicity ([1]; from DVS at 25° C./80% RH): non-hygroscopic

C[C@H](CC[C@](C)(O)C(F)(F)F)[C@H]1CC[C@H]2[C@@H]3CC=C4C[C@@](C)(O)CC[C@]4(C)[C@H]3CC[C@]12C [Form E]
solid form after heating (XRPD) ([2]; heating to 140° C.): converted to Form B

C[C@H](CC[C@](C)(O)C(F)(F)F)[C@H]1CC[C@H]2[C@@H]3CC=C4C[C@@](C)(O)CC[C@]4(C)[C@H]3CC[C@]12C [Form D]
solid form after heating (XRPD) ([2]; heating to 150° C.): converted to Form A
